Values joined by “and” are separate entries in the source; they are usually repeats but may differ in a detail not shown here. Equal values may be shown once. Where a name gives a salt, the structure may show the parent alone. Read-outs that look alike come from different tables or passages of the source.
Tested on: β2AR
Settings: for competition binding curve vs isoproterenol (Extended Data Figure 3M), Fit / competition binding curve vs isoproterenol (Extended Data Figure 3L), Fit: fitted curve

CC(C)NCC(O)c1ccc(O)c(O)c1 (stereo not drawn) [Isoproterenol, isoproterenol (+)-bitartrate salt]
competition binding curve vs isoproterenol (Extended Data Figure 3M), Fit (Sensor + Gs-peptide, Isoproterenol 1.00E-03 M): 1.12
competition binding curve vs isoproterenol (Extended Data Figure 3M) (Sensor + Gs-peptide, Isoproterenol 1.00E-03 M, replicates 1-3 and Average): 0.73 and -0.00169
competition binding curve vs isoproterenol (Extended Data Figure 3M), Fit (Sensor + Gs-peptide, Isoproterenol 1.00E-04 M): 1.39
competition binding curve vs isoproterenol (Extended Data Figure 3M) (Sensor + Gs-peptide, Isoproterenol 1.00E-04 M, replicates 1-3 and Average): 1.06 and 1.58 and 0.34 and 1.27
competition binding curve vs isoproterenol (Extended Data Figure 3M), Fit (Sensor + Gs-peptide, Isoproterenol 1.00E-05 M): 3.99
competition binding curve vs isoproterenol (Extended Data Figure 3M) (Sensor + Gs-peptide, Isoproterenol 1.00E-05 M, replicates 1-3 and Average): 5.22 and 6.17 and 4.29 and 5.19
competition binding curve vs isoproterenol (Extended Data Figure 3M), Fit (Sensor + Gs-peptide, Isoproterenol 1.00E-06 M): 22.44
competition binding curve vs isoproterenol (Extended Data Figure 3M) (Sensor + Gs-peptide, Isoproterenol 1.00E-06 M, replicates 1-3 and Average): 22.22 and 23.42 and 21.91 and 21.33
competition binding curve vs isoproterenol (Extended Data Figure 3M), Fit (Sensor + Gs-peptide, Isoproterenol 1.00E-07 M): 61.20
competition binding curve vs isoproterenol (Extended Data Figure 3M) (Sensor + Gs-peptide, Isoproterenol 1.00E-07 M, replicates 1-3 and Average): 61.19 and 63.45 and 61.62 and 58.48
competition binding curve vs isoproterenol (Extended Data Figure 3M), Fit (Sensor + Gs-peptide, Isoproterenol 1.00E-08 M): 85.17
competition binding curve vs isoproterenol (Extended Data Figure 3M) (Sensor + Gs-peptide, Isoproterenol 1.00E-08 M, replicates 1-3 and Average): 85.29 and 86.69 and 86.58 and 82.61
competition binding curve vs isoproterenol (Extended Data Figure 3M), Fit (Sensor + Gs-peptide, Isoproterenol 1.00E-09 M): 97.00
competition binding curve vs isoproterenol (Extended Data Figure 3M) (Sensor + Gs-peptide, Isoproterenol 1.00E-09 M, replicates 1-3 and Average): 96.71 and 101.87 and 95.55 and 92.70
competition binding curve vs isoproterenol (Extended Data Figure 3M), Fit (Sensor + Gs-peptide, Isoproterenol 1.00E-10 M): 99.03
competition binding curve vs isoproterenol (Extended Data Figure 3M) (Sensor + Gs-peptide, Isoproterenol 1.00E-10 M, replicates 1-3 and Average): 97.96 and 100.63 and 97.15 and 96.10
competition binding curve vs isoproterenol (Extended Data Figure 3M), Fit (Sensor, Isoproterenol 1.00E-03 M): 0.48
competition binding curve vs isoproterenol (Extended Data Figure 3M) (Sensor, Isoproterenol 1.00E-03 M, replicates 1-3 and Average): 0.69 and 0.84 and -0.72 and 0.27
competition binding curve vs isoproterenol (Extended Data Figure 3M) (Sensor, Isoproterenol 1.00E-04 M, replicates 1-3 and Average): 1.32 and 1.71 and -0.50 and 0.84
competition binding curve vs isoproterenol (Extended Data Figure 3M), Fit (Sensor, Isoproterenol 1.00E-05 M): 5.70
competition binding curve vs isoproterenol (Extended Data Figure 3M) (Sensor, Isoproterenol 1.00E-05 M, replicates 1-3 and Average): 7.08 and 7.24 and 5.39 and 6.57
competition binding curve vs isoproterenol (Extended Data Figure 3M), Fit (Sensor, Isoproterenol 1.00E-06 M): 30.01
competition binding curve vs isoproterenol (Extended Data Figure 3M) (Sensor, Isoproterenol 1.00E-06 M, replicates 1-3 and Average): 30.57 and 29.08 and 29.48 and 29.71
competition binding curve vs isoproterenol (Extended Data Figure 3M), Fit (Sensor, Isoproterenol 1.00E-07 M): 74.45
competition binding curve vs isoproterenol (Extended Data Figure 3M) (Sensor, Isoproterenol 1.00E-07 M, replicates 1-3 and Average): 73.61 and 76.73 and 72.17 and 74.17
competition binding curve vs isoproterenol (Extended Data Figure 3M), Fit (Sensor, Isoproterenol 1.00E-08 M): 96.90
competition binding curve vs isoproterenol (Extended Data Figure 3M) (Sensor, Isoproterenol 1.00E-08 M, replicates 1-3 and Average): 94.98 and 101.48 and 95.93 and 97.46
competition binding curve vs isoproterenol (Extended Data Figure 3M), Fit (Sensor, Isoproterenol 1.00E-09 M): 100.28
competition binding curve vs isoproterenol (Extended Data Figure 3M) (Sensor, Isoproterenol 1.00E-09 M, replicates 1-3 and Average): 98.04 and 104.41 and 99.80 and 100.75
competition binding curve vs isoproterenol (Extended Data Figure 3M), Fit (Sensor, Isoproterenol 1.00E-10 M): 100.63
competition binding curve vs isoproterenol (Extended Data Figure 3M) (Sensor, Isoproterenol 1.00E-10 M, replicates 1-3 and Average): 100.71 and 99.53 and 99.04 and 99.76
competition binding curve vs isoproterenol (Extended Data Figure 3M), Fit (Sensor, Isoproterenol 5.00E-06 M): 10.04
competition binding curve vs isoproterenol (Extended Data Figure 3M) (Sensor, Isoproterenol 5.00E-06 M, replicates 2-3 and Average): 10.13 and 9.02 and 9.58
competition binding curve vs isoproterenol (Extended Data Figure 3M), Fit (Sensor, Isoproterenol 5.00E-07 M): 42.59
competition binding curve vs isoproterenol (Extended Data Figure 3M) (Sensor, Isoproterenol 5.00E-07 M, replicates 2-3 and Average): 41.48 and 44.45 and 42.96
competition binding curve vs isoproterenol (Extended Data Figure 3L), Fit (Wild-Type + Gs-Peptide, Isoproterenol 1.00E-03 M): 0.69
competition binding curve vs isoproterenol (Extended Data Figure 3L) (Wild-Type + Gs-Peptide, Isoproterenol 1.00E-03 M, replicates 1-3 and Average): 0.0116 and 0.0442 and 0.27 and -0.28
competition binding curve vs isoproterenol (Extended Data Figure 3L), Fit (Wild-Type + Gs-Peptide, Isoproterenol 1.00E-04 M): 1.04
competition binding curve vs isoproterenol (Extended Data Figure 3L) (Wild-Type + Gs-Peptide, Isoproterenol 1.00E-04 M, replicates 1-3 and Average): 0.88 and 0.89 and 0.84 and 0.90
competition binding curve vs isoproterenol (Extended Data Figure 3L), Fit (Wild-Type + Gs-Peptide, Isoproterenol 1.00E-05 M): 4.37
competition binding curve vs isoproterenol (Extended Data Figure 3L) (Wild-Type + Gs-Peptide, Isoproterenol 1.00E-05 M, replicates 1-3 and Average): 5.43 and 5.70 and 4.92 and 5.68
competition binding curve vs isoproterenol (Extended Data Figure 3L), Fit (Wild-Type + Gs-Peptide, Isoproterenol 1.00E-06 M): 26.38
competition binding curve vs isoproterenol (Extended Data Figure 3L) (Wild-Type + Gs-Peptide, Isoproterenol 1.00E-06 M, replicates 1-3 and Average): 26.11 and 25.98 and 23.88 and 28.47
competition binding curve vs isoproterenol (Extended Data Figure 3L), Fit (Wild-Type + Gs-Peptide, Isoproterenol 1.00E-07 M): 67.56
competition binding curve vs isoproterenol (Extended Data Figure 3L) (Wild-Type + Gs-Peptide, Isoproterenol 1.00E-07 M, replicates 1-3 and Average): 67.66 and 67.54 and 65.49 and 69.94
competition binding curve vs isoproterenol (Extended Data Figure 3L), Fit (Wild-Type + Gs-Peptide, Isoproterenol 1.00E-08 M): 91.53
competition binding curve vs isoproterenol (Extended Data Figure 3L) (Wild-Type + Gs-Peptide, Isoproterenol 1.00E-08 M, replicates 1-3 and Average): 91.27 and 90.42 and 91.58 and 91.80
competition binding curve vs isoproterenol (Extended Data Figure 3L), Fit (Wild-Type + Gs-Peptide, Isoproterenol 1.00E-09 M): 98.02
competition binding curve vs isoproterenol (Extended Data Figure 3L) (Wild-Type + Gs-Peptide, Isoproterenol 1.00E-09 M, replicates 1-3 and Average): 99.15 and 99.41 and 97.66 and 100.39
competition binding curve vs isoproterenol (Extended Data Figure 3L), Fit (Wild-Type + Gs-Peptide, Isoproterenol 1.00E-10 M): 98.82
competition binding curve vs isoproterenol (Extended Data Figure 3L) (Wild-Type + Gs-Peptide, Isoproterenol 1.00E-10 M, replicates 1-3 and Average): 99.26 and 100.00 (2×) and 97.78
competition binding curve vs isoproterenol (Extended Data Figure 3L) (Wild-Type, Isoproterenol 1.00E-03 M, replicates 1-3 and Average): -0.10 and -0.40 and -0.34 and -0.28
competition binding curve vs isoproterenol (Extended Data Figure 3L), Fit (Wild-Type, Isoproterenol 1.00E-04 M): 0.67
competition binding curve vs isoproterenol (Extended Data Figure 3L) (Wild-Type, Isoproterenol 1.00E-04 M, replicates 1-3 and Average): 0.94 and 0.31 and 1.43 and 0.89
competition binding curve vs isoproterenol (Extended Data Figure 3L), Fit (Wild-Type, Isoproterenol 1.00E-05 M): 5.86
competition binding curve vs isoproterenol (Extended Data Figure 3L) (Wild-Type, Isoproterenol 1.00E-05 M, replicates 1-3 and Average): 6.24 and 5.08 and 7.57 and 6.30
competition binding curve vs isoproterenol (Extended Data Figure 3L), Fit (Wild-Type, Isoproterenol 1.00E-06 M): 32.07
competition binding curve vs isoproterenol (Extended Data Figure 3L) (Wild-Type, Isoproterenol 1.00E-06 M, replicates 1-3 and Average): 32.68 and 27.33 and 35.77 and 31.93
competition binding curve vs isoproterenol (Extended Data Figure 3L), Fit (Wild-Type, Isoproterenol 1.00E-07 M): 78.70
competition binding curve vs isoproterenol (Extended Data Figure 3L) (Wild-Type, Isoproterenol 1.00E-07 M, replicates 1-3 and Average): 79.40 and 70.32 and 85.20 and 78.31
competition binding curve vs isoproterenol (Extended Data Figure 3L), Fit (Wild-Type, Isoproterenol 1.00E-08 M): 97.15
competition binding curve vs isoproterenol (Extended Data Figure 3L) (Wild-Type, Isoproterenol 1.00E-08 M, replicates 1-3 and Average): 99.13 and 95.83 and 100.15 and 98.37
competition binding curve vs isoproterenol (Extended Data Figure 3L), Fit (Wild-Type, Isoproterenol 1.00E-09 M): 99.60
competition binding curve vs isoproterenol (Extended Data Figure 3L) (Wild-Type, Isoproterenol 1.00E-09 M, replicates 1-3 and Average): 96.70 and 99.42 and 102.28 and 99.47
competition binding curve vs isoproterenol (Extended Data Figure 3L), Fit (Wild-Type, Isoproterenol 1.00E-10 M): 99.85
competition binding curve vs isoproterenol (Extended Data Figure 3L) (Wild-Type, Isoproterenol 1.00E-10 M, replicates 1-3 and Average): 100.00 and 99.63 and 97.46 and 99.03
competition binding curve vs isoproterenol (Extended Data Figure 3L), Fit (Wild-Type, Isoproterenol 5.00E-06 M): 10.54
competition binding curve vs isoproterenol (Extended Data Figure 3L) (Wild-Type, Isoproterenol 5.00E-06 M, replicates 1-3 and Average): 11.05 and 8.39 and 11.22 and 10.22
competition binding curve vs isoproterenol (Extended Data Figure 3L), Fit (Wild-Type, Isoproterenol 5.00E-07 M): 46.03
competition binding curve vs isoproterenol (Extended Data Figure 3L) (Wild-Type, Isoproterenol 5.00E-07 M, replicates 1-3 and Average): 47.06 and 40.75 and 51.12 and 46.31
% Cyanopindolol Bmax, Average (β2AR ∆ICL3 + 30 µM Gq-peptide, isoproterenol 3.00E-06 M): 34.71%
% Cyanopindolol Bmax, Average (β2AR ∆ICL3 + 30 µM Gq-peptide, isoproterenol 5.00E-06 M): 27.06%
% Cyanopindolol Bmax, Average (β2AR ∆ICL3 + 30 µM Gq-peptide, isoproterenol 5.00E-07 M): 70.37%
% Cyanopindolol Bmax, Average (β2AR ∆ICL3, isoproterenol 3.00E-06 M): 30.73%
% Cyanopindolol Bmax, Average (β2AR ∆ICL3, isoproterenol 5.00E-06 M): 15.67%
% Cyanopindolol Bmax, Average (β2AR ∆ICL3, isoproterenol 5.00E-07 M): 65.90%
